# Data as given in US10377991B2, “Method of producing airway epithelial cells” (KYOTO UNIVERSITY, priority 2015, dated 2019).
# Test system: proximal airway epithelial progenitor cells induced from human iPS cells (201B7)
# Assay: Induction of differentiation into ciliated airway epithelial cells in Step 6 three-dimensional culture, qRT-PCR of FOXJ1, DNAHS and SNTN
# Type: cell-based
# Details: 10 μM DAPT in medium for Step 6 from Day 42, read on Day 56; versus Step 6 medium without DAPT
# Procedure: On Day 42 (i.e., upon completion of Step 5), the medium in the lower layer of Cell Culture Inserts (Corning) was exchanged with the medium for Step 6, and the medium of the lower layer was selectively exchanged with another medium every other day.
# The medium for Step 6 was prepared by supplementing the Pneumacult-ALI Maintenance Medium (STEMCELL Technologies) with 10 μM Y-27632.
# On Day 6 (i.e., upon completion of Step 1), Day 14 (i.e., upon completion of Step 3), Day 28 (i.e., upon completion of Step 4), Day 42 (i.e., upon completion of Step 5), and Day 56 (i.e., upon completion of Step 6), expression levels of FOXJ1, DNAHS, and SNTN as marker genes specific to ciliated airway epithelial cells were analyzed via quantitative RT-PCR. Day 56 (+DAPT) represents the results of culture conducted in the medium for Step 6 supplemented with 10 μM DAPT from Day 42 (i.e., upon completion of Step 5). The measured values indicate the ratio of the cell expression levels to the amount of β-actin (AB) corrected with the expression levels in the human fetal trachea (F-trachea, 29-weeks pregnant, BioChain Institute).
compound,measurement,value
"C[C@H](NC(=O)Cc1cc(F)cc(F)c1)C(=O)N[C@H](C(=O)OC(C)(C)C)c1ccccc1 [DAPT, N-[2S-(3,5-difluorophenyl)acetyl]-L-alanyl-2-phenyl-1,1-dimethylethyl ester-glycine]","differentiation into ciliated airway epithelial cells (expression of FOXJ1, DNAHS, SNTN by qRT-PCR)",further accelerated
